Assays:
[1] = system: AT3B1 cells; assay: Conversion of pro-immunostimulant to Imiquimod by α-Mannosidase or AT3B-1 cells, LC-MS/MS; assay type: cell-based, rat; settings: α-Mannosidase 0.1 U/mL or AT3B1 cells, 0-48 h
Procedure: To concretely determine the conversion of pro-immunostimulant (compound 6) to Imiquimod in the presence of α-Mannosidase over time for exogenous and endogenous experiments, 20 μL aliquots of 100 μM (pro-immunostimulant (compound 6)) in DMEM were incubated with 180 μL of either α-Mannosidase (0.1 U/mL, 37° C., 5% CO2), or AT3B1 cells (1×105, or 5×105, or 1×10^6 cells, 37° C., 5% CO2) without the addition of exogenous enzyme as shown by FIG. 6. To stop the reaction at the specified time points (0, 1, 2, 3, 6, 12, 24, and 48 h), 50 μL AO Quench Internal Standard (20 μg/mL, 2-methyl-4(3H)-quinazolinone in 1 M formic acid) was added to each individual reaction. Samples were then analyzed via LC-MS/MS.
The AT3B-1 cell line (ATCC CRL-2375, rat prostate epithelial malignant carcinoma) were grown in complete culture media composed of Roswell Park Memorial Institute (RPMI) 1640 medium with 4.5 g/L glucose, 2 mM L-glutamine, 10,000 U/mL penstrep, 10 mM HEPES and supplemented with 10% HI-FBS and 1 μM doxorubicin. Media was changed every 3-4 days omitting the doxorubicin, and cells were passaged once per week. Passaging involved changing media, counting, and seeding 3×10^5 cells in 35 mL of new complete media in a new T-175 culture flask.
α-Mannosidase from Canavalia ensiformis (Jack bean) was used directly from the bottle to make a 1 U/mL stock solution in DPBS. […]

[2] = system: JAWSII cells; assay: JAWSII ELISA cytokine production (TNF, IL-6, IL-12); assay type: cell-based, murine
Procedure: Measurement of JAWSII cytokine production was performed similarly to manufacturer instructions. The cytokines analyzed were IL-12, IL-6, and TNF. For the cytokine assays, 1×10^5 JAWSII cells were seeded in an optically clear bottomed 6-well plate in 1 mL of complete assay media (identical to JAWSII growth media) for a density of 1×10^5 cells/well. Cells were incubated for 42 h. For co-culture experiments with JAWSII and B16 or β-galactosidase-enriched B16 cells, JAWSII cells were seeded at a density of 1×10^5 cells/well and allowed to adhere for 42 h before the addition of B16 cells, which were seeded at a density of 1×10^5 cells/well. For co-culture experiments with JAWSII and β-galactosidase-enriched B16 cells, JAWSII cells were seeded at a density of 1×10^5 cells/well and allowed to adhere for 42 h before the addition of β-galactosidase-enriched B16 cells, which were seeded at a density of 1×10^5 cells/well.
For experiments with β-gal, a stock solution (500 U/mL, where 1 U=1 μmol/min) was used. A final enzymatic activity of 1 U/well was achieved by addition of 2 μL of the 500 U/mL stock solution to each well. Stock solutions of Imiquimod or (6) in DMSO (1.15 and 1.49 mg/mL, respectively) were then added to the appropriate wells to achieve a final concentration of 5 μM. The cells were incubated for 16 h (37° C., 5% CO2) before supernatant was collected. Cells were pelletized (200 RCF, 10 min) and removed. Supernatant was analyzed for cytokines without further dilution according to manufacturer instructions for ELISA. Absorbance was analyzed at 450 nm and standard curves were used to determine absolute cytokine concentrations.

[3] = system: RAW-Blue cells; assay: RAW-Blue colorimetric assay (NF-κB transcription); assay type: cell-based
Procedure: Measurement of RAW-Blue cell activation was performed similarly to manufacturer instructions. For the NF-κB assay, 1×10^5 RAW-Blue cells were seeded in an optically clear bottomed 96-well plate in 180 μL of complete assay media (identical to B16 media) at a density of 1×10^5 cells/well. For co-culture experiments with RAW-Blue and B16 or β-galactosidase-enriched B16 cells, RAW-Blue cells were seeded at a density of 1×10^5 cells/well and were allowed to adhere for 4 h before the addition of the B16 cells, which were seeded at a density of 1×10^5 cells/well. For co-culture experiments with RAW-Blue and β-galactosidase-enriched B16 cells, RAW-Blue cells were seeded at a density of 1×10^5 cells/well and were allowed to adhere for 4 h before the addition off β-galactosidase-enriched B16 cells, which were seeded at a density of 1×10^5 cells/well.
For experiments with β-gal, a stock solution (500 U/mL, where 1 U=1 μmol/min) was used. A final enzymatic activity of 1 U/well was achieved by addition of 2 μL of the 500 U/mL stock solution to each well. Imiquimod or (6) were prepared as 1.15 and 1.49 mg/mL stock solutions, respectively, in DMSO, and were added to the appropriate wells to achieve the specified final concentrations in each experiment ranging from 0.1 to 10 μM. […] The PNPP assays were incubated for 3 h (37° C., 5% CO2), and the absorbance was measured at 405 nm. […]

In the case of “4-Imiquimod-2-nitrophenyl-galactopyranoside [compound 6]”, the “conversion to Imiquimod and efflux” value [1] is reported as “still being converted in the presence of enzyme and effluxed”, the “pro-inflammatory cytokine production (TNF, IL-6, IL-12)” value ([2]; 5 μm, without β-galactosidase) is reported as “not induce significant pro-inflammatory cytokine production” and the pro-inflammatory cytokine production ([2]; co-cultures of JAWSII and β-galactosidase-enriched B16 melanoma cells) is reported as “resulted in the production of pro-inflammatory cytokines”. For the same substance, the “cytokine production relative to Imiquimod, all three cytokines (TNF, IL-6, IL-12)” value ([2]; with exogenous β-galactosidase, equimolar Imiquimod) was greater than 80%, the NF-κB transcription ([3]; co-cultures of β-galactosidase-enriched B16 cells and RAW-Blue cells, relative to unaltered B16 co-cultures or RAW-Blue cells alone) was “enhanced” and the RAW-Blue cell activity ([3]; compound alone, relative to compound with 1 U β-galactosidase or Imiquimod, 16 h) was “abrogated”.

From US11117918B2, “Enzyme-directed immunostimulant and uses thereof” (Washington State University, priority 2016, dated 2021)
